Results published in patent US20240350493A1 (Kadmon Corporation, LLC, priority 2022, published 2024).
Like-named read-outs stand apart in the source and are kept apart here.

Assay: relative bioavailability/food effect study, tablet and capsule (KD025-106)
Format: in vivo, human
Conditions: for AUC(0-t) / AUC(0-inf) / Cmax / Tmax / half-life: male, human, plasma, oral, 200 mg
Description: Both studies were single-center, open-label, randomized, single dose crossover studies in healthy males.
In the second, relative bioavailability/food effect study, both the marketed tablets and earlier formulation capsules were investigated.
For Treatments B and C, before dosing, subjects consumed a high-fat breakfast consisting of a hash brown, bacon, fried egg, white bread, and 240 mL of full fat milk over 25 minutes. […] All subjects were to receive each treatment, with at least a 6-day washout between each period. Water was permitted ad libitum in all study periods, besides for 1 hour pre-and post-dose.
In both studies, serial blood samples for PK analysis were collected at pre-dose and 1, 2, 4, 6, 8, 12, 16, 24, and 36 hours post-dose. An additional sample at 30 hours post-dose was collected in the first study; additional samples were collected 3, 5, and 48 hours post-dose in the second study. Blood samples (5-6 mL per sample) were collected in K3EDTA tubes on ice and were processed within 30 minutes of collection, then frozen at approximately-70 to −80° C. shortly after collection.
Sample preparation was performed by protein precipitation.
Statistical analyses were performed in SAS using the PROC MIXED procedure and the Restricted Maximum Likelihood estimation method. In both studies, the presence of a food effect was evaluated by a formal statistical analysis on natural log-transformed AUC and Cmax using mixed effect modeling techniques. The model included treatment, period, and sequence as fixed effects and subject nested within sequence as a random effect. Adjusted geometric mean ratios (GMRs) and their 90% confidence intervals (CIs) were calculated for fed (test) versus fasted (reference) treatments. The absence of a food effect was to be concluded if the 90% CI was within the bioequivalence limits of 80.00 to 125.00%.
To assess relative bioavailability between formulations in the second study, the same analysis was performed for tablets (test) versus capsules (reference), both in the fed state. For both studies, all subjects who received at least one dose of study drug and had post-dose PK data available were included in the PK population

[1] = 200 mg tablet, high-fat breakfast

CC(C)NC(=O)COc1cccc(-c2nc(Nc3ccc4[nH]ncc4c3)c3ccccc3n2)c1 [Belumosudil, 2-{3-[4-(1H-indazol-5-ylamino)-2-quinazolinyl]phenoxy}-N-(propan-2-yl) acetamide]
reduction of inter-subject variability in exposure with food (200 mg tablet): approximately 60%
AUC% extrap, arithmetic mean (SD) (200 mg tablet, fasted): 8.38 (9.05) %
AUC% extrap, geometric mean (geometric CV %) (200 mg tablet, fasted): 6.02 (90.8); %
AUC% extrap, arithmetic mean (SD) (200 mg tablet, fed): 1.71 (0.71) %
AUC% extrap, geometric mean (geometric CV %) (200 mg tablet, fed): 1.55 (50.3); %
AUCinf fed as % of fasted [1]: 180%
Cmax fed as % of fasted [1]: 225%
AUC(0-t) (200 mg tablet, fasted, read-out: AUC0-24, arithmetic mean (SD)): 5.4 µg·h/mL
AUC(0-t) (200 mg tablet, fasted, read-out: AUC0-24, geometric mean (geometric CV %)): 4.25 µg·h/mL
AUC(0-inf) (200 mg tablet, fasted, read-out: AUCinf, arithmetic mean (SD)): 6.67 µg·h/mL
AUC(0-inf) (200 mg tablet, fasted, read-out: AUCinf, geometric mean (geometric CV %)): 4.91 µg·h/mL
AUC(0-t) (200 mg tablet, fasted, read-out: AUClast, arithmetic mean (SD)): 5.83 µg·h/mL
AUC(0-t) (200 mg tablet, fasted, read-out: AUClast, geometric mean (geometric CV %)): 4.52 µg·h/mL
Cmax (200 mg tablet, fasted, read-out: Cmax, arithmetic mean (SD)): 1.11 µg/mL
Cmax (200 mg tablet, fasted, read-out: Cmax, geometric mean (geometric CV %)): 0.821 µg/mL
Tmax (200 mg tablet, fasted, read-out: Tmax, median (range)): 2 h
half-life (200 mg tablet, fasted, read-out: t1/2, arithmetic mean (SD) (converted)): 12.2 h
half-life (200 mg tablet, fasted, read-out: t1/2, geometric mean (geometric CV %) (converted)): 11.2 h
AUC(0-t) (200 mg tablet, fed, read-out: AUC0-24, arithmetic mean (SD)): 10.6 µg·h/mL
AUC(0-t) (200 mg tablet, fed, read-out: AUC0-24, geometric mean (geometric CV %)): 9.58 µg·h/mL
AUC(0-inf) (200 mg tablet, fed, read-out: AUCinf, arithmetic mean (SD)): 11.3 µg·h/mL
AUC(0-inf) (200 mg tablet, fed, read-out: AUCinf, geometric mean (geometric CV %)): 10.1 µg·h/mL
AUC(0-t) (200 mg tablet, fed, read-out: AUClast, arithmetic mean (SD)): 10.8 µg·h/mL
AUC(0-t) (200 mg tablet, fed, read-out: AUClast, geometric mean (geometric CV %)): 9.75 µg·h/mL
Cmax (200 mg tablet, fed, read-out: Cmax, arithmetic mean (SD)): 2.32 µg/mL
Cmax (200 mg tablet, fed, read-out: Cmax, geometric mean (geometric CV %)): 2.1 µg/mL
Tmax (200 mg tablet, fed, read-out: Tmax, median (range)): 2.5 h
half-life (200 mg tablet, fed, read-out: t1/2, arithmetic mean (SD) (converted)): 7.59 h
half-life (200 mg tablet, fed, read-out: t1/2, geometric mean (geometric CV %) (converted)): 6.98 h
Tmax (200 mg tablet, read-out: delay in Tmax with fed administration): 0.5 h
exposure (Cmax and AUC) higher for tablet versus capsule (single dose 200 mg, fed state): 17-19%
